Experimental data as given in patent US10952436B2, “Microbiocidal quinoline (thio)carboxamide derivatives” (SYNGENTA PARTICIPATIONS AG, priority 2017, dated 2021).

Legend:
[1] = tested on: Botryotinia fuckeliana (Botrytis cinerea); assay: Botryotinia fuckeliana (Botrytis cinerea)/Liquid Culture (Gray Mould); format: cell-based; details: 200 ppm, liquid culture, compared to untreated control, 3-4 days after application, read-out: control of Botryotinia fuckeliana
Fusarium culmorum [2] = assay: microbe, parasite or virus in culture; format: cell-based; details: read-out: control of Fusarium culmorum
Fusarium culmorum [3] = assay: whole plant or invertebrate; format: in vivo; details: in Triticum aestivum, read-out: control of Fusarium culmorum
[4] = tested on: Glomerella lagenarium (Colletotrichum lagenarium); assay: Glomerella lagenarium (Colletotrichum lagenarium)/Liquid Culture (Anthracnose); format: cell-based; details: Colletotrichum orbiculare; 200 ppm; liquid culture, compared to untreated control, 3-4 days after application; read-out: control of Glomerella lagenarium
[5] = tested on: Monographella nivalis (Microdochium nivale); assay: Monographella nivalis (Microdochium nivale)/Liquid Culture (Foot Rot Cereals); format: cell-based; details: 200 ppm, liquid culture, compared to untreated control, 4-5 days after application, read-out: control of Monographella nivalis
[6] = tested on: Magnaporthe grisea (Pyricularia oryzae); assay: microbe, parasite or virus in culture; format: cell-based; details: read-out: control of Magnaporthe grisea

SMILES	inhibition of growth at 200 ppm [1] [%]	inhibition of growth at 200 ppm (Fusarium culmorum [2]) [%]	pest or weed control at 200 ppm (Fusarium culmorum [3]) [%]	inhibition of growth at 200 ppm [4] [%]	inhibition of growth at 200 ppm [5] [%]	inhibition of growth at 200 ppm [6] [%]	melting point [°C]
C/C=C\CC(C)(Cc1ccccc1)C(=O)Nc1cnc2c(F)cccc2c1 (stereo not shown) [Compound E-28, (Z)-2-benzyl-N-(8-fluoro-3-quinolyl)-2-methyl-hex-4-enamide]	≥ 80	≥ 80	≥ 80	≥ 80	≥ 80	≥ 80	128 to 130
CC(C)(C)C(Cc1ccccc1)C(=O)Nc1cnc2c(F)cccc2c1 (stereo not shown) [Compound E-88, 2-benzyl-N-(8-fluoro-3-quinolyl)-3,3-dimethyl-butanamide]	≥ 80	≥ 80	≥ 80			≥ 80	212 to 215
C=C(C)CC(Cc1ccccc1)C(=O)Nc1cc2cccc(F)c2nc1C (stereo not shown) [Compound E-92, 2-benzyl-N-(8-fluoro-2-methyl-3-quinolyl)-4-methyl-pent-4-enamide]	≥ 80	≥ 80	≥ 80	≥ 80			97 to 99
C=C(C)CC(C)(Cc1ccccc1)C(=O)Nc1cnc2c(Br)cccc2c1 (stereo not shown) [Compound E-63, 2-benzyl-N-(8-bromo-3-quinolyl)-2,4-dimethyl-pent-4-enamide]	≥ 80	≥ 80	≥ 80			≥ 80	165 to 169
CC(Cc1ccccc1)C(=O)Nc1cnc2c(F)cccc2c1 (stereo not shown) [Compound E-31, N-(8-fluoro-3-quinolyl)-2-methyl-3-phenyl-propanamide]	≥ 80	≥ 80		≥ 80		≥ 80	188 to 190
C=C(C)CC(Cc1ccccc1)C(=O)Nc1cnc2c(F)cccc2c1 (stereo not shown) [Compound E-94, 2-benzyl-N-(8-fluoro-3-quinolyl)-4-methyl-pent-4-enamide]	≥ 80	≥ 80		≥ 80	≥ 80		170 to 172
CC(C)=CC(C)(Cc1ccccc1)C(=O)Nc1cnc2c(F)cccc2c1 (stereo not shown) [Compound E-48, 2-benzyl-N-(8-fluoro-3-quinolyl)-2,4-dimethyl-pent-3-enamide]	≥ 80	≥ 80	≥ 80	≥ 80		≥ 80	167 to 169
CN(C(=O)C(C)(Cc1ccccc1)CC(F)(F)F)c1cnc2c(F)cccc2c1 (stereo not shown) [Compound E-42, 2-benzyl-4,4,4-trifluoro-N-(8-fluoro-3-quinolyl)-N,2-dimethyl-butanamide]	≥ 80	≥ 80		≥ 80		≥ 80	137 to 139
C=C(Cl)CC(Cc1ccccc1)C(=O)Nc1cnc2c(F)cccc2c1C (stereo not shown) [Compound E-5, 2-benzyl-4-chloro-N-(8-fluoro-4-methyl-3-quinolyl)pent-4-enamide]	≥ 80	≥ 80	≥ 80	≥ 80	≥ 80		53 to 58
CC(Cc1ccccc1)(CC(F)(F)F)C(=O)Nc1cnc2cc(F)ccc2c1 (stereo not shown) [Compound E-52, 2-benzyl-4,4,4-trifluoro-N-(7-fluoro-3-quinolyl)-2-methyl-butanamide]	≥ 80	≥ 80		≥ 80	≥ 80	≥ 80	180 to 182
O=C(Nc1cnc2c(F)cccc2c1)C(Cc1ccccc1)CC(F)(F)Cl (stereo not shown) [Compound E-58, 2-benzyl-4-chloro-4,4-difluoro-N-(8-fluoro-3-quinolyl)butanamide]	≥ 80	≥ 80	≥ 80	≥ 80	≥ 80	≥ 80	65 to 70
C=C(CC)CC(C)(Cc1ccccc1)C(=O)Nc1cnc2c(F)cccc2c1 (stereo not shown) [Compound E-54, 2-benzyl-N-(8-fluoro-3-quinolyl)-2-methyl-4-methylene-hexanamide]	≥ 80	≥ 80		≥ 80		≥ 80	118 to 120
COC(Cc1ccccc1)(CC(C)C)C(=O)Nc1cc2cccc(F)c2nc1C (stereo not shown) [Compound E-37, 2-benzyl-N-(8-fluoro-2-methyl-3-quinolyl)-2-methoxy-4-methyl-pentanamide]	≥ 80	≥ 80	≥ 80	≥ 80	≥ 80	≥ 80	92 to 94
COC(Cc1ccccc1)(CC(C)C)C(=O)Nc1cnc2c(F)cccc2c1 (stereo not shown) [Compound E-38, 2-benzyl-N-(8-fluoro-3-quinolyl)-2-methoxy-4-methyl-pentanamide]	≥ 80	≥ 80	≥ 80	≥ 80		≥ 80	133 to 135
Cc1c(NC(=O)C(C)(Cc2ccccc2)CC(C)C)cnc2c(F)cccc12 (stereo not shown) [Compound E-84, 2-benzyl-N-(8-fluoro-4-methyl-3-quinolyl)-2,4-dimethyl-pentanamide]	≥ 80	≥ 80	≥ 80	≥ 80	≥ 80		73 to 79
COCN(C(=O)C(C)(Cc1ccccc1)CC(F)(F)F)c1cnc2c(F)cccc2c1 (stereo not shown) [Compound E-33, 2-benzyl-4,4,4-trifluoro-N-(8-fluoro-3-quinolyl)-N-(methoxymethyl)-2-methyl-butanamide]	≥ 80	≥ 80		≥ 80		≥ 80	108 to 110
CC(C)CC(C)(Cc1ccccc1)C(=O)Nc1cnc2c(Cl)cccc2c1 (stereo not shown) [Compound E-9, 2-benzyl-N-(8-chloro-3-quinolyl)-2,4-dimethyl-pentanamide]	≥ 80	≥ 80		≥ 80	≥ 80	≥ 80	163 to 165
CC(Cc1ccccc1)(CC(F)(F)F)C(=O)Nc1cnc2c(F)c(F)ccc2c1 (stereo not shown) [Compound E-60, 2-benzyl-N-(7,8-difluoro-3-quinolyl)-4,4,4-trifluoro-2-methyl-butanamide]	≥ 80	≥ 80	≥ 80	≥ 80	≥ 80	≥ 80	183 to 186
Cc1cccc2cc(NC(=O)C(C)(Cc3ccccc3)CC(F)(F)F)cnc12 (stereo not shown) [Compound E-59, 2-benzyl-4,4,4-trifluoro-2-methyl-N-(8-methyl-3-quinolyl)butanamide]	≥ 80	≥ 80	≥ 80	≥ 80	≥ 80	≥ 80	123 to 125
C=C(C)C[C@](C)(Cc1ccccc1)C(=O)Nc1cnc2c(F)cccc2c1 [Compound F-22, (2R)-2-benzyl-N-(8-fluoro-3-quinolyl)-2,4-dimethyl-pent-4-enamide]	≥ 80	≥ 80		≥ 80	≥ 80		133 to 135
CC(Cc1ccccc1)(CC(F)(F)F)C(=O)Nc1cnc2cccc(F)c2c1 (stereo not shown) [Compound E-49, 2-benzyl-4,4,4-trifluoro-N-(5-fluoro-3-quinolyl)-2-methyl-butanamide]	≥ 80	≥ 80				≥ 80	140 to 142
COC(C)(Cc1ccccc1)C(=O)Nc1cnc2c(F)cccc2c1 (stereo not shown) [Compound E-43, N-(8-fluoro-3-quinolyl)-2-methoxy-2-methyl-3-phenyl-propanamide]	≥ 80	≥ 80	≥ 80	≥ 80	≥ 80	≥ 80	107 to 109
C=CCC(C)(Cc1ccccc1)C(=O)Nc1cnc2c(F)cccc2c1 (stereo not shown) [Compound E-78, 2-benzyl-N-(8-fluoro-3-quinolyl)-2-methyl-pent-4-enamide]	≥ 80	≥ 80	≥ 80	≥ 80	≥ 80		146 to 149
